Reference: patent publication US20160324820A1, “PHARMACEUTICAL COMPOSITIONS COMPRISING 15-HEPE AND METHODS OF TREATING ASTHMA AND LUNG DISORDERS USING SAME” (Dignity Sciences Limited, priority 2014, published 2016)

Tested on: Hartley guinea pigs
Experiment: Histamine-induced bronchoconstriction following seven days of oral gavage in anesthetized, ventilated guinea pigs
Type: in vivo, guinea pig
Settings: for Change from baseline Respiratory Resistance (ventilator pressure), Average RR / Change from baseline Respiratory Resistance (ventilator pressure), Average VP: n=3
Source text: In an embodiment, the pharmacodynamics of a composition comprising 15-HEPE as disclosed herein may be examined using a model of a lung disease or disorder. In a more detailed embodiment, the effects of a composition comprising a vehicle, a positive control or 15-HEPE on ventilator pressure in histamine challenged guinea pigs serves as a model for the pharmacodynamics in asthma. In an exemplary method, guinea pigs are first dosed with compositions comprising a vehicle, a positive control or 15-HEPE for seven days. The treated guinea pigs can then be anesthetized and exposed to a nebulized bronchoconstictor to determine if 15-HEPE can reduce the increase in ventilatory pressure induced by a bronchoconstrictor. This serves as an effective model for asthma and other lung diseases. The guinea pig is a reliable animal model in respiratory research due to their respiratory sensitivity and their expression of similar respiratory reactions to those observed in humans. […] Adult male Hartley guinea pigs weighing approximately 450-500 g were acclimated least 5 days before the day of the beginning of the oral gavages. Animals were assigned to one of four groups (low dose, high dose, vehicle and positive control) and were double-housed per group during acclimation period. The test article was formulated using olive oil as the vehicle. A low and a high dose of 15-HEPE (50 mg/kg and 500 mg/kg) was formulated. A 1 mg/ml stock solution of bambuterol was prepared in an aqueous solution, and was then mixed with olive oil in the gavage syringe for the […]. The stock solution was stored at −20° C., but was used at room temperature and was considered stable for the duration of the experiment. A 5 μg/ml stock solution of histamine dihydrochloride (Sigma Aldrich) was prepared in a saline solution (0.9% NaCl). The stock solution was stored at 4° C. The expiration date was set at 14 days after preparation. The concentrations of positive control, (bambuterol 0.27 mg/kg/day) and the hypertensor (histamine 0.184, 0.919 and 1.84 μg/kg) were selected based on literature references. Each group received the designated compound by oral gavage using a 1 ml syringe. The dosing schedule was as follows: • Vehicle (olive oil) • Bambuterol 0.27 mg/kg/day • 15-HEPE 50 mg/kg/day • 15-HEPE 500 mg/kg/day The stock solutions were administered once per day for seven consecutive days. On the seventh dosage day the animals underwent surgery two hours after the oral feeding. All animal care and vivarium maintenance were recorded, with documents kept at the test facility. Guinea pigs were anesthetized with an intraperitoneal injection of urethane (1.5 g/kg). A tracheotomy was performed and the animals were mechanically ventilated throughout the experiment. The ventilatory pressure was recorded and analyzed for signs of bronchospasm. A pulse oxymeter was attached to each animal's hind paw to obtain heart beat and oxygen saturation on the anaesthetized guinea pigs to continuously monitor the general condition of the animals during the surgical procedure. Following baseline measurements, three doses of histamine (0.184, 0.919 and 1.84 μg/kg) were nebulized (constant volume tidal, 60 respirations per minute, 7.5 ml/sec), with an interval of 20 minutes between each dose, or until a steady state was reached. Respiratory resistance, heart rate, and oxygen saturation were monitored continuously for a period of about 1 hour post challenge. At the end of the experiment, the animals were euthanized by exsanguination. Clampfit 10.2.0.14 analysis software (Axon Instruments), installed on networked personal computers running Microsoft Windows was used. Clampfit 10.2.0.14 has been fully validated in the connected context in which it was used. The graphics software for illustrations is Microsoft Office Excel 2007 installed on networked personal computers running Microsoft Windows. […]

[1] = 15-HEPE 500 mg/kg/day gavage 7 days, nebulized histamine 0.184 (μg/kg)
[2] = 15-HEPE 500 mg/kg/day gavage 7 days, nebulized histamine 0.919 (μg/kg)
[3] = 15-HEPE 500 mg/kg/day gavage 7 days, nebulized histamine 1.84 (μg/kg)
[4] = bambuterol 0.27 mg/kg/day gavage 7 days, nebulized histamine 0.184 (μg/kg)
[5] = bambuterol 0.27 mg/kg/day gavage 7 days, nebulized histamine 0.919 (μg/kg)
[6] = bambuterol 0.27 mg/kg/day gavage 7 days, nebulized histamine 1.84 (μg/kg)

SMILES: CCC=CCC(O)C=CC=CCC=CCC=CCCCC(=O)O (stereo not shown) [15-HEPE, 15-Hydroxy-eicosa-5,8,11,13,17-pentaenoic acid]
- Change from baseline Respiratory Resistance (ventilator pressure), Guinea pig #1 [1]: 0.2098 mmHg
- Change from baseline Respiratory Resistance (ventilator pressure), Guinea pig #2 [1]: 1.657 mmHg
- Change from baseline Respiratory Resistance (ventilator pressure), Guinea pig #3 [1]: 0.6489 mmHg
- Change from baseline Respiratory Resistance (ventilator pressure), Average RR [1]: 0.84 mmHg
- Change from baseline Respiratory Resistance (ventilator pressure), Guinea pig #1 [2]: 0.8494 mmHg
- Change from baseline Respiratory Resistance (ventilator pressure), Guinea pig #2 [2]: 1.37 mmHg
- Change from baseline Respiratory Resistance (ventilator pressure), Guinea pig #3 [2]: 2.34 mmHg
- Change from baseline Respiratory Resistance (ventilator pressure), Average RR [2]: 1.52 mmHg
- Change from baseline Respiratory Resistance (ventilator pressure), Guinea pig #1 [3]: 2.169 mmHg
- Change from baseline Respiratory Resistance (ventilator pressure), Guinea pig #2 [3]: 1.791 mmHg
- Change from baseline Respiratory Resistance (ventilator pressure), Guinea pig #3 [3]: 3.913 mmHg
- Change from baseline Respiratory Resistance (ventilator pressure), Average RR [3]: 2.62 mmHg
- lung ventilatory pressure (test animals challenged with a bronchoconstrictor, result in words): improve lung ventilatory pressure

SMILES: CN(C)C(=O)Oc1cc(OC(=O)N(C)C)cc(C(O)CNC(C)(C)C)c1 (stereo not shown) [Bambuterol, bambuterol, reference compound]
- Change from baseline Respiratory Resistance (ventilator pressure), Guinea pig #1 [4]: 0.2759 mmHg
- Change from baseline Respiratory Resistance (ventilator pressure), Guinea pig #2 [4]: −0.05857 mmHg
- Change from baseline Respiratory Resistance (ventilator pressure), Guinea pig #3 [4]: 1.238 mmHg
- Change from baseline Respiratory Resistance (ventilator pressure), Average VP [4]: 0.48 mmHg
- Change from baseline Respiratory Resistance (ventilator pressure), Guinea pig #1 [5]: 1.099 mmHg
- Change from baseline Respiratory Resistance (ventilator pressure), Guinea pig #2 [5]: 1.219 mmHg
- Change from baseline Respiratory Resistance (ventilator pressure), Guinea pig #3 [5]: 2.266 mmHg
- Change from baseline Respiratory Resistance (ventilator pressure), Average VP [5]: 1.53 mmHg
- Change from baseline Respiratory Resistance (ventilator pressure), Guinea pig #1 [6]: 2.215 mmHg
- Change from baseline Respiratory Resistance (ventilator pressure), Guinea pig #2 [6]: 1.945 mmHg
- Change from baseline Respiratory Resistance (ventilator pressure), Guinea pig #3 [6]: 2.651 mmHg
- Change from baseline Respiratory Resistance (ventilator pressure), Average VP [6]: 2.27 mmHg
